Measured values from patent US20240034731A1, “AZA-QUINAZOLINE COMPOUNDS AND METHODS OF USE” (Iambic Therapeutics, Inc., priority 2022, published 2024).

Key:
CDK6/Cyclin D3 = CDK6/Cyclin D3 (Homo sapiens (Human), UniProt Q00534); test: CDK6/Cyclin D3 ADP-Glo Kinase Assay; format: biochemical; settings: 100 uM ATP, read-out: CDK6/ CyclinD3 IC50
Procedure: CDK6/Cyclin D3 ADP-Glo Kinase Assay
The purpose of the CDK6/Cyclin D3 assay is to evaluate the inhibition (% inhibition and IC50 values) in the presence of small molecule inhibitors by using a Luminescent based ADP-Glo assay. CDK6/Cyclin D3 catalyzes the production of ADP from ATP. ADP-Glo assay monitors ADP producing biochemical reactions. ADP-Glo is performed in 2 steps upon completion of kinase reaction: a combined termination of kinase reaction and depletion of remaining ATP in the first step, and conversion of generated ADP to […] and the newly produced ATP to light output using luciferase/luciferin reaction in the second step. The luminescent signal generated is proportional to the ADP concentration produced and is correlated with the kinase activity CDK6/Cyclin D3 was purchased from Carna. […] The assay was initiated with the addition of ATP-containing substrate solution, following a 30-minute pre-incubation of enzyme and inhibitor at room temperature in the reaction mixture. The reaction was stopped after 90 minutes at room temperature by the addition of 10 uL of ADP-GLO Reagent. After a 90-minute incubation, 20 uL of Kinase Detection Reagent was added. Samples were incubated for 40 minutes, after which plate well luminescence was measured on a Envision microplate reader. The IC50 determinations were made from a plot of the fractional velocity as a function of inhibitor concentration fit to the 4 parameters IC50 equation.

CDK2/Cyclin E1 = CDK2/Cyclin E1 (Homo sapiens (Human), UniProt P24941); test: CDK2/Cyclin E1 Full length ADP-Glo Kinase Assay; format: biochemical; settings: 20 uM ATP, read-out: CDK2/ CyclinE1 IC50
Procedure: CDK2/Cyclin E1 Full length ADP-Glo Kinase Assay
(§1) The purpose of CDK2/Cyclin E1 assay is to evaluate the inhibition (% inhibition and IC50 values) of small molecule inhibitors by using a Luminescent based ADP-Glo assay. CDK2/Cyclin E1 full length catalyzes the production of ADP from ATP. ADP-Glo assay monitors ADP producing biochemical reactions. ADP-Glo is performed in 2 steps upon completion of kinase reaction: a combined termination of kinase reaction and depletion of remaining ATP in the first step, and conversion of generated ADP to ATP and the newly produced ATP to light output using luciferase/luciferin reaction in the second step. The luminescent signal generated is proportional to the ADP concentration produced and is correlated with the kinase activity. CDK2/Cyclin E1 was purchased from Eurofins (Cat 14-475M). […] The assay was initiated with the addition of ATP-containing substrate solution, following a 30-minute pre-incubation of enzyme and inhibitor at room temperature in the reaction mixture. The reaction was stopped after 90 minutes at room temperature by the addition of 10 uL of ADP-GLO Reagent. After a 90 minute incubation, 20 uL of Kinase Detection Reagent was added. Samples were incubated for 40 minutes, after which plate well luminescence was measured on a Envision microplate reader. The IC50 determinations were made from a plot of the fractional velocity as a function of inhibitor concentration fit to the 4 parameters IC50 equation.

MCF-7 cells = test: Cell Growth Inhibition, MCF-7 (CellTiterGlo, 6 days); format: cell-based; settings: Homo sapiens, MCF7, 144 h, MCF-7, 6-day treatment
Source text: (§2) MCF-7 and OVCAR-3 cells were used to evaluate the anti-proliferation activity of the CDK inhibitors. MCF-7 (ATCC, HTB-22) cells are epithelial cells from a patient with ER+ metastatic adenocarcinoma. OVCAR-3 (ATCC, HTB-161) cells were derived from malignant ascites of a patient with ovarian cancer and are known to have CCNE1 amplification. Both cell lines were maintained in RPMI media supplemented with 10% fetal bovine serum. For cell growth inhibition assay, CDK inhibitors in DMSO solution were dispensed with either Echo 655 (Beckman Coulter) or Tecan D300e (HP) into 384-well plates (Corning #3765) and the 384-well plates were UV-sterilized prior to the assay. The inhibitors were typically tested in the 10-10,000 nM concentration range with half-log serial dilutions. MCF-7 or OVCAR-3 (500 cells/30 μL/well) were added to each well using Multidrop Combi (ThermoFisher) using standard cassettes. The assay plates with cells were cultured at 37° C., 5% CO2 for 6 days. At the end of the 6-day treatment, 30 μL of CellTiterGlo 2.0 (Promega) was added to each well and the luminescent signal was read using CLARIOstar plus (BMG). The percentage of cell growth inhibition (% CGI) was calculated using the following formula 00 CGI=100-100×luminescencesampie/luminescencecontroi. The half maximal inhibitory concentration (IC50) was determined by nonlinear curve fitting (four parameters, variable slope).

CDK1/Cyclin B1 = CDK1/Cyclin B1 (Homo sapiens (Human), UniProt P06493); test: CDK1/Cyclin B1 ADP-Glo Kinase Assay; format: biochemical; settings: ADP-Glo, 80 uM ATP; read-out: CDK1 Cyclin B1 IC50
CDK1/Cyclin B1, sequence (P06493 whole entry): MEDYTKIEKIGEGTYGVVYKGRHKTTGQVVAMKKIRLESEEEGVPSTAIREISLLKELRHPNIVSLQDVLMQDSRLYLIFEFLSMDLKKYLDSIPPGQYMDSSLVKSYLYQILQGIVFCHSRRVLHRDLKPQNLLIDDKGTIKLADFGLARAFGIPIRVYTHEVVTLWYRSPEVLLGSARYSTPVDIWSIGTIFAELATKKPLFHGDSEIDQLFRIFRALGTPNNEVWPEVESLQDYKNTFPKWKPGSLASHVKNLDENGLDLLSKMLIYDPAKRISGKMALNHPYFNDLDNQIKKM
CDK1/Cyclin B1, sequence (P14635 whole entry partner): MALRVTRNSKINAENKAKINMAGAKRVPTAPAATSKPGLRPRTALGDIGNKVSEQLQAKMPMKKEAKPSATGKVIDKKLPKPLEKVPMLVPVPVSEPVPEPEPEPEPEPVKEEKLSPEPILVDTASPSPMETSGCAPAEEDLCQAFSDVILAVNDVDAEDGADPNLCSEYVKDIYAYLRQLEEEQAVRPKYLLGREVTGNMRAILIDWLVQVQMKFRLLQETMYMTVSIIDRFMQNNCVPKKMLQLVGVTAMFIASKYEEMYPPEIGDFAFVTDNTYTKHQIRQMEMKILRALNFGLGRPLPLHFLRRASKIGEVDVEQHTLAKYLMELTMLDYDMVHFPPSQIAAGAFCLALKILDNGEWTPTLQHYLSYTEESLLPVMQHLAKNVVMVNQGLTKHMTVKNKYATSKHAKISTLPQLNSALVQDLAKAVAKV
Procedure: CDK1/Cyclin B1 ADP-Glo Kinase Assay
as §1, with “CDK1/Cyclin B1” for “CDK2/Cyclin E1”, “CDK1/Cyclin B1” for “CDK2/Cyclin E1 full length”, “Carna” for “Eurofins”, “04-102).” for “14-475M).”

OVCAR-3 cells = test: Cell Growth Inhibition, OVCAR-3 (CellTiterGlo, 6 days); format: cell-based; settings: Homo sapiens, 144 h, OVCAR-3, 6-day treatment
Source text: as §2

CDK4/Cyclin D1 = CDK4/Cyclin D1 (Homo sapiens (Human), UniProt P11802); test: CDK4/Cyclin D1 CHEF Assay (AQT0258 peptide); format: biochemical; settings: 200 uM ATP, read-out: CDK4/ CyclinD1 AQT IC50
CDK4/Cyclin D1, sequence (P11802 whole entry): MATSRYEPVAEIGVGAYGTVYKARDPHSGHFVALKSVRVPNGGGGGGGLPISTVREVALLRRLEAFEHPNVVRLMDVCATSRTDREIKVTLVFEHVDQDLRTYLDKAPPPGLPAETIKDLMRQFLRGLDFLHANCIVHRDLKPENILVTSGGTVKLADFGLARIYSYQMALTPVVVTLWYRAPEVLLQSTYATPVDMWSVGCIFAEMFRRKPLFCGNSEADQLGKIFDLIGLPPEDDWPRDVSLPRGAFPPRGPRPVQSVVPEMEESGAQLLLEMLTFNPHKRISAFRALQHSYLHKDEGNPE
CDK4/Cyclin D1, sequence (P24385 whole entry partner): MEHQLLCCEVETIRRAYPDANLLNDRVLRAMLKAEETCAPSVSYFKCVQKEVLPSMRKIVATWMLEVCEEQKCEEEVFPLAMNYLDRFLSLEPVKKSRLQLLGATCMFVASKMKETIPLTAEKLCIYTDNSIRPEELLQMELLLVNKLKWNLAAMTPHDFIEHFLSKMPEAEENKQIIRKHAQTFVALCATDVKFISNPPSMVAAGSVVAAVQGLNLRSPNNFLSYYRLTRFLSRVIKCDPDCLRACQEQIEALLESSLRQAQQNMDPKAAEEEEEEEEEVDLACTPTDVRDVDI
Source text: CDK4/Cyclin D1 CHEF Assay
The purpose of CDK4/Cyclin D1 assay is to evaluate the inhibition (% inhibition and IC50 values) of small molecule inhibitors by using a Chelation-Enhance Fluorescence (CHEF) assay. In a CHEF assay, phosphorylation of a peptide substrate results in proportional increase in fluorescence. CHEF kinase assay use peptide substrates containing a synthetic alpha-amino acid with a side chain bearing an 8-hydroxyquinoline derivative (sulfonamido-oxide, Sox). Upon phosphorylation of a nearby serine, threonine or tyrosine and in the presence of Mg(II), the spectral properties of the Sox residue are altered, emitting 485 nm wavelength light when excited with a 360 nm wavelength light source. CDK4/Cyclin D1 catalyzes the phosphoryl transfer to the SOX-labeled substrate peptide AQT0258 from Assayquant Technologies. […] The reaction was initiated with the addition of substrate solution, following a 30-minute pre-incubation of enzyme and inhibitor at 22° C. in the reaction mix. Reactions were allowed to proceed for 3 hrs at 22° C., followed by fluorescence read of the reaction. The IC50 determinations were made from a plot of the fractional velocity as a function of inhibitor concentration fit to the 4 parameters IC50 equation.

CDK6/Cyclin D3, sequence (Q00534 whole entry): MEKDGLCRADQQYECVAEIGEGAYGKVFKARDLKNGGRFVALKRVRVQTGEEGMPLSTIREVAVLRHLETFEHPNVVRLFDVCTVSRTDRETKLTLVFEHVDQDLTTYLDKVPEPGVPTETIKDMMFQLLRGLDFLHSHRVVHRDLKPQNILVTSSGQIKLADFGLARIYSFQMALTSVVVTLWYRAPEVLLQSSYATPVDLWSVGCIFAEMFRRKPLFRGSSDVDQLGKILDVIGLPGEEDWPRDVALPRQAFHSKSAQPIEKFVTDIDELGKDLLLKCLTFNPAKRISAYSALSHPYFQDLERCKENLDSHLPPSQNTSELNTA
CDK6/Cyclin D3, sequence (P30281 whole entry partner): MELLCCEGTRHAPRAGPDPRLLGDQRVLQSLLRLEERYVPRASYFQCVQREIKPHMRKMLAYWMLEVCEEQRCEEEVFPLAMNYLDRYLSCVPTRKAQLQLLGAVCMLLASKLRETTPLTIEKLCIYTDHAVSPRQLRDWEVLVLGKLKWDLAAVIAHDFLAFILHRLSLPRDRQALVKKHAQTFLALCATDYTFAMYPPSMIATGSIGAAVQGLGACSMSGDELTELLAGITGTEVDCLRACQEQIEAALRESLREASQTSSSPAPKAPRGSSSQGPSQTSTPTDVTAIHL

| Structure (SMILES) | IC50 (CDK6/Cyclin D3) [nM] | IC50 (CDK2/Cyclin E1) [nM] | IC50 (MCF-7 cells) [nM] | IC50 (CDK1/Cyclin B1) [nM] | IC50 (OVCAR-3 cells) [nM] | IC50 (CDK4/Cyclin D1) [nM] |
| --- | --- | --- | --- | --- | --- | --- |
| CN1Cc2ccc(Nc3ncc4ccnc(N5CCC6(CCN(S(C)(=O)=O)C6)C5)c4n3)cc2C1 (stereo not drawn) [Compound 23, N-(2-methylisoindolin-5-yl)-8-(7-(methylsulfonyl)-2,7-diazaspiro[4.4]nonan-2-yl)pyrido[3,4-d]pyrimidin-2-amine] | < 200 | < 200 | < 200 | 500 to 2000 | < 200 | < 200 |
| CN1Cc2ccc(Nc3ncc4ccnc(N5CC6(C5)CS(=O)(=O)C6)c4n3)cc2C1 [Compound 24, 6-(2-((2-methylisoindolin-5-yl)amino)pyrido[3,4-d]pyrimidin-8-yl)-2-thia-6-azaspiro[3.3]heptane 2,2-dioxide] | < 200 | < 200 | 500 to 2000 | 500 to 2000 | 500 to 2000 | < 200 |
| Cc1cc2cnc(Nc3cnn(C4CC5(C4)CN(C)C5)c3)nc2c(N2CC3(C2)CN(S(C)(=O)=O)C3)n1 [Compound 26, 6-methyl-N-(1-(2-methyl-2-azaspiro[3.3]heptan-6-yl)-1H-pyrazol-4-yl)-8-(6-(methylsulfonyl)-2,6-diazaspiro[3.3]heptan-2-yl)pyrido[3,4-d]pyrimidin-2-amine] | 500 to 2000 | 200 to 500 | > 2000 | > 2000 | > 2000 | 200 to 500 |
| Cc1cc2cnc(NC3CCN(S(=O)(=O)C4CC4)CC3)nc2c(N2CC(F)(F)C3(CN(C)C3)C2)n1 [Compound 102, N-(1-(cyclopropylsulfonyl)piperidin-4-yl)-8-(8,8-difluoro-2-methyl-2,6-diazaspiro[3.4]octan-6-yl)-6-methylpyrido[3,4-d]pyrimidin-2-amine] | < 200 | < 200 | – | < 200 | – | < 200 |
| [2H]C([2H])([2H])N1CC2(CN(c3nc(C)cc4cnc(NC5CCN(S(C)(=O)=O)CC5)nc34)CC2(F)F)C1 [Example 12, 8-(8,8-difluoro-2-(methyl-d3)-2,6-diazaspiro[3.4]octan-6-yl)-6-methyl-N-(1-(methylsulfonyl)piperidin-4-yl)pyrido [3,4-d]pyrimidin-2-amine] | < 200 | < 200 | – | < 200 | – | < 200 |

Results, then the compound that gave them:

| IC50 (CDK6/Cyclin D3) [nM] | IC50 (CDK2/Cyclin E1) [nM] | IC50 (MCF-7 cells) [nM] | IC50 (CDK1/Cyclin B1) [nM] | IC50 (OVCAR-3 cells) [nM] | IC50 (CDK4/Cyclin D1) [nM] | Structure (SMILES) |
| --- | --- | --- | --- | --- | --- | --- |
| 500 to 2000 | < 200 | > 2000 | 500 to 2000 | 500 to 2000 | 500 to 2000 | Cc1cc2cnc(Nc3ccc4c(c3)CN(S(C)(=O)=O)C4)nc2c(N2CC3(CN(C)C3)C2)n1 [Compound 27, 6-methyl-8-(6-methyl-2,6-diazaspiro[3.3]heptan-2-yl)-N-(2-(methylsulfonyl)isoindolin-5-yl)pyrido[3,4-d]pyrimidin-2-amine] |
| < 200 | < 200 | – | 200 to 500 | – | < 200 | Cc1cc2cnc(NC3CCN(S(C)(=O)=O)CC3)nc2c(N2CC3(CN(C)CC3(F)F)C2)n1 [Compound 101, 8-(8,8-difluoro-6-methyl-2,6-diazaspiro[3.4]octan-2-yl)-6-methyl-N-(1-(methylsulfonyl)piperidin-4-yl)pyrido[3,4-d]pyrimidin-2-amine] |
| < 200 | – | 500 to 2000 | < 200 | 500 to 2000 | < 200 | O=S(=O)(C1CC1)N1CCC(Nc2ncc3cc(C(F)F)nc(N4CC5(CCNC5)C4)c3n2)CC1 [Example 46] |
| < 200 | < 200 | – | 200 to 500 | – | < 200 | Cc1cc2cnc(NC3CCN(S(C)(=O)=O)CC3)nc2c(C2CC(O)(C3CC3)C2)n1 (stereo not drawn) [Example 88, 1-cyclopropyl-3-(6-methyl-2-((1-(methylsulfonyl)piperidin-4-yl)amino)pyrido[3,4-d]pyrimidin-8-yl)cyclobutan-1-ol] |
